In paper PMC10704437, “Sterol-activated amyloid beta fibril formation” (The Journal of Biological Chemistry, 2023):

Columns and labels:
Aβ42 monomer = target: T1, Aβ42 monomer (Homo sapiens, UniProt P05067); assay: Sterol binding to Aβ42, equilibrium DHE fluorescence titrations; details: direct Aβ42 titration of DHE fluorescence; single-binding-site fit; K2PO4 50 mM, pH 7.4, 25 °C; read-out: Kd
T1 construct: Small red spheres mark the Aβ42 peptide C-terminal residue, A42; purchased Sigma-Aldrich Corp
T1 sequence (P05067 672-713 limits assumed): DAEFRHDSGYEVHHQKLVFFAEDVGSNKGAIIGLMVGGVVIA
Procedure: CH ([27]) and CS ([28]) increase the rate of Aβ aggregation and CH is thought to stabilize fibrils ([29]); yet, the affinities of CH and its metabolites for the Aβ peptide monomer have not been determined. Here, CH and CS affinities for the Aβ42 monomer are established using dehydroergosterol (DHE)—a fluorescent CH analog ([30]) used as a competitive probe to determine CH and CS affinities. Aβ42 monomers were prepared as previously described ([31]) (see Methods). […] Under this condition, Aβ42 essentially quantitatively binds DHE until its concentration exceeds that of DHE, which results in a breakpoint in the titration curve that yields the stoichiometry. The arrow seen descending from the breakpoint indicates a stoichiometry of 1:1, which agrees well with the ∼1:1 CH-metabolite:Aβ stoichiometry estimated from analysis of senile plaques micro-dissected from AD-patient brain tissue ([15]).
Figure 1 Sterol binding to Aβ42at equilibrium.A, DHE affinity for monomeric Aβ4_2. […] Binding was detected via the binding-induced 4.4 (±0.2)-fold increase in DHE fluorescence (λex = 325 nm, λem= 375 nm). Fluorescence intensity, I, is plotted relative to the intensity at zero titrant, I0. Titrations were performed independently in triplicate and the line passing through the data is the least-squares fit to a single-binding-site model. B, Aβ42:DHE stoichiometry. […] C. DHE fluorescence (λex = 325 nm, λem = 375 nm) is plotted versus [Aβ42]/[DHE]. The line descending from the titration breakpoint indicates a stoichiometry of 1:1. C and D, CH and CS affinities. Affinities were determined by competitive binding versus DHE. […] C, was titrated with CH (5.0–500 nM, 0.05–5 × Kd) or CS (5.0–500 nM, 0.15–[…] × Kd). Binding was monitored via the decrease in DHE fluorescence (λex = 325, λem = 375) caused by DHE displacement from Aβ42. Controls ensured that <2.0% of Aβ42 oligomerized during the measurement. Titrations were performed in triplicate and averaged. The solid lines through the data represent least-squares fits to a competitive single-binding-site model. C and D, insets highlight the behavior of the titration over ligand concentrations that span their reported CMCs (indicated by arrows). […]
DHE/Aβ42 binding interactions were monitored via the binding-induced 4.4-fold change in DHE fluorescence (λex = 325 nm, λem= 375 nm). […]
The affinities of CH and CS for Aβ42 were determined in competitive binding studies versus DHE. Binding was detected via the fluorescence decrease (λex= 325 nm, λem = 375 nm) caused by DHE displacement. […] Imax = (fraction DHE-bound to peptide at zero competitive ligands)/4.4 — the fold fluorescence change associated with DHE dissociation, see Figure 1A.

Aβ42 = target: T2, Aβ42 (Homo sapiens, UniProt P05067); assay: Sterol binding to Aβ42, pre-steady-state stopped-flow fluorescence
T2 construct: Small red spheres mark the Aβ42 peptide C-terminal residue, A42; purchased Sigma-Aldrich Corp
T2 sequence (P05067 672-713 limits assumed): as above
Procedure: To establish the rates at which Aβ42•ligand complexes form and dissociate, the rate constants governing the binding reactions were determined. DHE binding was monitored in real time using a stopped-flow fluorimeter via binding-induced changes in DHE fluorescence. The reactions are pseudo first order in [ligand] and kobs was obtained by least-squares fitting progress curves to a single-exponential equation ([44], [45]). kobs values were determined (in triplicate) at a series of Aβ42 concentrations and the averaged values are plotted versus [Aβ42] in Figure 2B. kon and koff are given by the slope and intercept of the kobs-versus-[Aβ42] plot obtained by linear least-square fitting ([44], [45]). […] The rate constants are compiled in Table 1.
Figure 2 Sterol binding to Aβ42—pre-steady state studies.A, DHE binding. Reactions were monitored via binding induced changes in DHE fluorescence using a stopped-flow fluorimeter (λex = 325, λem > 400 nm). Fluorescence intensity, I, is reported relative to the intensity in the absence of ligand, Io. […] C was rapidly mixed (1:1, v/v) with a solution identical except that Aβ42 was replaced by DHE (40 nM, 2.7 × Kd). The bindingreaction curve shown is the average of five independent progress curves. The averaged curve was a least-squares fit to a single-exponential equation and the resulting best fit (indicated by the red line) yielded kobs. B, DHE kon and koff. kobs values obtained as in Panel A were determined in triplicate at varying Aβ42 concentrations and the averaged values are shown plotted versus [Aβ42]. kon and koff are given by the slope and intercept of a linear least-squares fit of the kobsversus [Aβ42] plot. C and D, CH and CS displacement reactions.
Pre-steady-state binding of sterols to Aβ42 was monitored via the binding-induced change in DHE fluorescence (λex = 325, λem > 400 nm) using an Applied Photophysics SX20 stopped-flow fluorimeter.
Three progress curves (each an average of five independently obtained curves) were collected at five separate Aꞵ42 concentrations. The observed rate constant (kobs) at a given [Aβ42] was obtained by fitting the average of the three curves to a single-exponential equation using Pro-K software ([75]). kon and koff were obtained from the slopes and intercepts predicted by linear least-squares analysis of kobs versus [Aβ42] plots.
C. […] Progress curves were determined in triplicate and koff was obtained by least-squares fitting the averaged curves to a single-exponential equation using Pro-K.

SMILES: CC(C)[C@@H](C)/C=C/[C@@H](C)[C@H]1CC[C@H]2C3=CC=C4C[C@@H](O)CC[C@]4(C)C3=CC[C@]12C [DHE, dehydroergosterol, reference compound]
- Kd (Aβ42 monomer): 16 nM
- koff (Aβ42; intercept of kobs versus [Aβ42] plot, stopped-flow, pH 7.4, 25 °C): 1 s⁻¹
- Kd (Aβ42; ratio of rate constants, read-out: koff/kon): 17 nM
- kon (Aβ42; slope of kobs versus [Aβ42] plot, stopped-flow, pH 7.4, 25 °C): 6e+07 M⁻¹ s⁻¹
